Here are results for 52 molecules from US20240425496A1, “AZETIDINYL PYRIMIDINES AND USES THEREOF” (Aerie Pharmaceuticals, Inc., priority 2021, published 2024).

Bounds are passed on as bounds.

The target of one assay is JAK1 (Homo sapiens (Human), UniProt P23458). Description: JAK kinase assay (KINASE-GLO luminescent), JAK1 enzyme. The note with it: JAK1 enzyme 10 nM, Abl peptide substrate. It is filed as biochemical. The protocol:
(§1) All compounds were initially prepared as 10 mM stocks in anhydrous dimethylsulfoxide (DMSO). […] Test compounds were then serially diluted 1:5 in DMSO for an 11-point concentration response and further diluted in the assay buffer bringing all compound concentrations to a final range of 100 μM to 10 μM in 2.5% DMSO. […] The reaction was initiated by the addition of 10 μL of 4× stock solution ATP (2 μM). Reactions were thoroughly mixed manually, covered, and allowed to incubate at room temperature for 75 min. Protein kinase activity was quantitated using Promega's KINASE-GLO™ luminescent Kinase Assay Kit according to the manufacturer's directions. ATP concentrations remaining in Test wells following the termination of the enzymatic reaction were compared against control wells containing equivalent amounts of DMSO containing no inhibitor (CTRL). […] Percent of Control (POC) values were determined for each concentration of compound tested according to the equation: […]
(§2) IC50 values were calculated using the following 4-parameter logistic curve-fitting algorithm:
(§3) Compounds were prepared in the exact same manner as described in the ROCK Kinase Assay with the exception to the substrate and enzyme. […] All other steps and solutions remain identical to the ROCK Kinase Assay above.
For orientation: Kinase-Glo reads ATP consumption through a luciferase reaction.

Another assay deals with TYK2 (Homo sapiens (Human), UniProt P29597). The assay can be described thus: JAK kinase assay (KINASE-GLO luminescent), TYK2 enzyme. It is filed as biochemical. The note with it: TYK2 enzyme 10 nM, Abl peptide substrate. The protocol: as §1, §2, §3
Sequence of TYK2 (P29597 whole entry, species assumed): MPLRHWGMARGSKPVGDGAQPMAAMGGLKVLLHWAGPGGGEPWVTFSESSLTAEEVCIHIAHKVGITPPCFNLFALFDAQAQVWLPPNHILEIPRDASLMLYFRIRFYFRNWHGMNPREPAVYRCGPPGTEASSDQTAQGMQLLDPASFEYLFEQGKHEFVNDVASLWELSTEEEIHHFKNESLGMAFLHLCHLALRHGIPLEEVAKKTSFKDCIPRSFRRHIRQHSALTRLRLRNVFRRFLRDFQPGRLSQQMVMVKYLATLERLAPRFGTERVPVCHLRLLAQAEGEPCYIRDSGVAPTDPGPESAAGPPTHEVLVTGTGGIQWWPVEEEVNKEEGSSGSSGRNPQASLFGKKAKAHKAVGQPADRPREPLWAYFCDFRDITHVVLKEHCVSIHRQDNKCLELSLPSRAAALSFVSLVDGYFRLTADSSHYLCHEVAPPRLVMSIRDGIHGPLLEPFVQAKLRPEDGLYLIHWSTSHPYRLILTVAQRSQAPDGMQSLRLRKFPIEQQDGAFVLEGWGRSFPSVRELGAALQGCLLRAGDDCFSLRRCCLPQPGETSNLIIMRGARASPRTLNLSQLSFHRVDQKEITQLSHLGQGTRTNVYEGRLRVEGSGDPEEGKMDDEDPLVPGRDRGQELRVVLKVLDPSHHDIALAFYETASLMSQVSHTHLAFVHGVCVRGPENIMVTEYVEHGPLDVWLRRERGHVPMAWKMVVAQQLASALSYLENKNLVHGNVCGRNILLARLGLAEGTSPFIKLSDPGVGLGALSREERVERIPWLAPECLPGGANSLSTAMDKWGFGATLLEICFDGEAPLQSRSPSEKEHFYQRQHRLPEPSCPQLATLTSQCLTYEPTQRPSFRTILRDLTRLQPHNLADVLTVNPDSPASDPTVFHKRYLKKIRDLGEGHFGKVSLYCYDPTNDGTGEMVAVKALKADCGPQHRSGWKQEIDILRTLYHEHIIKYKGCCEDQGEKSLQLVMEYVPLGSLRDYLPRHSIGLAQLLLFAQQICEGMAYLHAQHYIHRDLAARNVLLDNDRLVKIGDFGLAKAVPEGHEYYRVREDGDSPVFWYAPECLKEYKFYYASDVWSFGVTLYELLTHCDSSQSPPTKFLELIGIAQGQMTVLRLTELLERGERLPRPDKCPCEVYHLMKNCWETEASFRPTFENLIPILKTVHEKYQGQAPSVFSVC

Sequence of JAK1 (P23458 whole entry, species assumed): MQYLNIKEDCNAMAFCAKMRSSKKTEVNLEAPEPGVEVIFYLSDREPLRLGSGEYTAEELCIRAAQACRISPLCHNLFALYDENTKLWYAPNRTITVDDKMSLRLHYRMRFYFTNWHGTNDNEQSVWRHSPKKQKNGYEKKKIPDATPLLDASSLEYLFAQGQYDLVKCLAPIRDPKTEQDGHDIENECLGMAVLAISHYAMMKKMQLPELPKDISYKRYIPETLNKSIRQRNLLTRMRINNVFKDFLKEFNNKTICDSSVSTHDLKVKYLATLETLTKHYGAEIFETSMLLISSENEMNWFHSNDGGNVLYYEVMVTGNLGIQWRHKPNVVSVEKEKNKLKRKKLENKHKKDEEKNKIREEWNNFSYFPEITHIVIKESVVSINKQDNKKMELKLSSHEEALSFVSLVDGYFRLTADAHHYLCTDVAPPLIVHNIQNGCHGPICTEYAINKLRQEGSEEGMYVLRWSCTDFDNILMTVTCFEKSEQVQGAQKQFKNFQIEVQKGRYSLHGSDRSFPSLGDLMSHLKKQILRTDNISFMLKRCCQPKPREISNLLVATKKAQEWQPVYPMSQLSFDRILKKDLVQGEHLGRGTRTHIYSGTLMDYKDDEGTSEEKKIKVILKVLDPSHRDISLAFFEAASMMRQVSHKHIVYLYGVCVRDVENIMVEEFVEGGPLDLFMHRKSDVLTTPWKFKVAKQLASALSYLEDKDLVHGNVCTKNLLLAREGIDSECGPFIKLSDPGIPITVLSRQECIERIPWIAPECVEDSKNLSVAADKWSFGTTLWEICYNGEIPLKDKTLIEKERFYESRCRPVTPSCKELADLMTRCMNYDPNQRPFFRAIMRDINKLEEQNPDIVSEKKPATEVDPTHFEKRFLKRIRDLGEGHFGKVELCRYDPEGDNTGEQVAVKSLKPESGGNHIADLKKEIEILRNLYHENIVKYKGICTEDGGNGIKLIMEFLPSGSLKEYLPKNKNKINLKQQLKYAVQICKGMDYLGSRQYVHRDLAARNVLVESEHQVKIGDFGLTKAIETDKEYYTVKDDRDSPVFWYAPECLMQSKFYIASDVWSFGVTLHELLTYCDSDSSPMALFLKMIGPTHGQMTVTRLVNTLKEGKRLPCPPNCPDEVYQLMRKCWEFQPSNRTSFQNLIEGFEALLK

For the molecule `Cc1cnc(Nc2ccc3c(c2)CN(C)C3)nc1N1CC(CC#N)(N2CCCC3(C2)CC3(F)F)C1` (centres unmarked) [E111, 2-(3-(1,1-difluoro-5-azaspiro[2.5]octan-5-yl)-1-(5-methyl-2-((2-methylisoindolin-5-yl)amino)pyrimidin-4-yl)azetidin-3-yl)acetonitrile], the IC50 on JAK1 and against TYK2 was below 10 nM each time.
Take `Cc1cc(Nc2ncc(C)c(N3CC(CC#N)(N4CCN5CC(C)(C)C[C@H]5C4)C3)n2)sn1` [E111a]: the half-maximal inhibitory concentration (IC50) against JAK1 and against TYK2 was below 10 nM each time.
In the case of `Cc1cc(Nc2ncc(C)c(N3CC(CC#N)(N4CC5(C4)CC(F)(F)CO5)C3)n2)sn1` [E112a], the IC50 on JAK1 and on TYK2 was below 50 nM each time.
For `Cc1cnc(Nc2ccc3c(c2)CN(C)C3)nc1N1CC(CC#N)(N2CCC3(CC2)CC3(F)F)C1` [E113], the IC50 on JAK1 and at TYK2 was below 10 nM throughout.
On to `Cc1cc(Nc2ncc(C)c(N3CC(CCCl)(N4CCCCC4)C3)n2)sn1` [E113a], for which the half-maximal inhibitory concentration (IC50) on JAK1 and on TYK2 was below 10 nM throughout.
For the molecule `Cc1cnc(Nc2ccc3c(c2)CN(C)C3)nc1N1CC(CC#N)(N2CCC3(CC2)CC3)C1` [E114], the half-inhibitory concentration (IC50) against JAK1 and against TYK2 was below 20 nM in each case.
Regarding `Cc1cc(Nc2ncc(C)c(N3CC(O)(CC#N)C3)n2)sn1` [E114a], the IC50 – broadly, the midpoint of a concentration-inhibition curve – is below 20 nM at JAK1 and below 10 nM against TYK2.
Taken in the same sequence, the figures for `Cc1cnc(Nc2ccc(N3CCN(C)CC3)c(C(F)(F)F)c2)nc1N1CC2(C1)CC2(F)F` [E115] were below 250 nM and below 100 nM.
Taken in the same sequence, the figures for `Cc1cc(Nc2ncc(C)c(N3CC(CC#N)(N4CCCN5CCCC5C4)C3)n2)sn1` (centres unmarked) [E115a] were below 200 nM and below 50 nM.
On the same counts, the results for `Cc1cnc(Nc2cccc(CN(C)C)c2)nc1N1CC(CC#N)(N2CCCC3(C2)CC3(F)F)C1` (centres unmarked) [E116] are below 10 nM and below 10 nM.
With `Cc1cc(Nc2ncc(C)c(N3CC(CCF)(N4CCCCC4)C3)n2)sn1` [E116a], the IC50 against JAK1 is below 50 nM; against TYK2, below 10 nM.
Taken in the same sequence, the figures for `Cc1cc(Nc2ncc(C)c(N3CC(N)(CC#N)C3)n2)sn1` [E117-AA] were below 100 nM and below 50 nM.
Taken in the same sequence, the figures for `Cc1cc(Nc2ncc(C)c(N3C4CC3CN(CCC#N)C4)n2)sn1` [E117-AD] were below 1000 nM and below 1000 nM.
On the same counts, the results for `Cc1cc(Nc2ncc(C)c(N3CC(CCF)(N4CCN5C[C@H](F)C[C@H]5C4)C3)n2)sn1` [E117-A] are below 50 nM and below 10 nM.
For the molecule `Cc1cc(Nc2ncc(C)c(N3CC(CC#N)(N4CC5NCCOC5C4)C3)n2)sn1` (centres unmarked) [E117-B], the IC50 was below 50 nM on JAK1 and below 100 nM on TYK2.
As to `Cc1cc(Nc2ncc(C)c(N3CC(CC#N)(N4CCC(F)(F)CC4)C3)n2)sn1` [E117-E], the IC50 at JAK1 and against TYK2 was below 5 nM in each case.
Take `Cc1cc(Nc2ncc(C)c(N3CC(CC#N)(N4CCN5CC6(CC6)C[C@H]5C4)C3)n2)sn1` [E117-G]: the IC50 against JAK1 and on TYK2 was below 5 nM in each case.
Take `Cc1cc(Nc2ncc(C)c(N3CC(CC#N)(N4CCN(CCCF)CC4)C3)n2)sn1` [E117-J]: the concentration for half-maximal inhibition (IC50) at JAK1 and at TYK2 was below 5 nM each time.
For `C#CC1(O)CN(c2nc(Nc3cc(C)ns3)ncc2C)C1` [E117-N], the IC50 is below 10 nM against JAK1 and below 5 nM against TYK2.
As for `Cc1cc(Nc2ncc(C)c(N3CC4(C3)CC4(F)F)n2)sn1` [E117-P], the IC50 at JAK1 is below 10 nM; on TYK2 it was below 5 nM.
For the molecule `Cc1cc(Nc2ncc(C)c(N3CC(CC#N)(N4CCN(C)C(CCF)C4)C3)n2)sn1` (centres unmarked) [E117-R], the values for the IC50 against JAK1 and against TYK2 were below 10 nM and below 5 nM, respectively.
Taken in the same sequence, the figures for `Cc1cnc(Nc2cc(CN(C)C)ns2)nc1N1CC(CC#N)(N2CCN3CCCC[C@H]3C2)C1` [E117-S] were below 25 nM and below 10 nM.
On the same counts, the results for `Cc1cc(Nc2ncc(C)c(N3CC(CCC#N)C3)n2)sn1` [E117-T] are below 25 nM and below 10 nM.
Taken in the same sequence, the figures for `Cc1cc(Nc2ncc(C)c(N3CC(CC(F)F)C3)n2)sn1` [E117-U] were below 25 nM and below 10 nM.
Regarding `Cc1cc(Nc2ncc(C)c(N3C4CC3CN(CC#N)C4)n2)sn1` [E117-V], the half-maximal inhibitory concentration (IC50) against JAK1 and against TYK2 was below 50 nM throughout.
On to `Cc1cc(Nc2ncc(C)c(N3CC(=CC#N)C3)n2)sn1` [E117-X], for which the IC50 on JAK1 and at TYK2 was below 75 nM each time.
As to `Cc1cc(Nc2ncc(C)c(N3CC(CC#N)(CN4CCN5C[C@H](F)C[C@H]5C4)C3)n2)sn1` [E117-Y], the IC50 is below 100 nM at JAK1 and below 50 nM on TYK2.
Take `Cc1cnc(Nc2cccnc2)nc1N1CC(CC#N)(N2CCN(C)CC2)C1` [E117]: the IC50 is below 50 nM on JAK1 and below 20 nM at TYK2.
Taken in the same sequence, the figures for `Cc1cc(Nc2ncc(C)c(N3CC(CC#N)(N4CCN5C[C@H](C)C[C@H]5C4)C3)n2)sn1` [E117a] were below 50 nM and below 10 nM.
Taken in the same sequence, the figures for `Cc1cnc(Nc2ccc(N3CCOCC3)cc2)nc1N1CC(CC#N)(N2CCN(C)CC2)C1` [E118] were below 50 nM and below 10 nM.
Taken in the same sequence, the figures for `Cc1cnc(Nc2ccc3c(c2)CN(C)C3)nc1N1CC(CC#N)(N2CCC(F)(F)CC2)C1` [E119-A] were below 10 nM and below 10 nM.
In the case of `Cc1cnc(Nc2ccc(N3CCOCC3)c(F)c2)nc1N1CC(CC#N)(N2CCCCC2)C1` [E119], the figures for the IC50 at JAK1 and at TYK2 were below 25 nM and below 10 nM, respectively.
Take `Cc1cnc(Nc2cnn(C)c2)nc1N1CC(CC#N)(N2CCN3C[C@H](F)C[C@H]3C2)C1` [E152a, 2-(3-((7R,8aS)-7-fluorohexahydropyrrolo[1,2-a]pyrazin-2(1H)-yl)-1-(5-methyl-2-((1-methyl-1H-pyrazol-4-yl)amino)pyrimidin-4-yl)azetidin-3-yl)acetonitrile]: the IC50 at JAK1 and against TYK2 was below 10 nM throughout.
As to `[2H]C([2H])([2H])n1cc(Nc2ncc(C)c(N3CC(CC#N)(N4CCN5C[C@H](F)C[C@H]5C4)C3)n2)cn1` [E156a], the IC50 against JAK1 and at TYK2 was below 10 nM in each case.
As to `Cc1cnc(Nc2cnn(C)c2)nc1N1CC(CC#N)(N2CCN3CC(F)(F)C[C@H]3C2)C1` [E157a], the IC50 against JAK1 and on TYK2 was below 10 nM in each case.
With `Cc1cnc(Nc2cnn(C)c2)nc1N1CC(CC#N)(N2CCN3CCCC[C@@H]3C2)C1` [E159a], the IC50 against JAK1 is below 120 nM; against TYK2 it was below 100 nM.
With `Cc1cnc(Nc2cnn(C)c2)nc1N1CC(CC#N)(N2CCC3C(CC2)C3(F)F)C1` (centres unmarked) [E160a], the IC50 at JAK1 and on TYK2 was below 10 nM each time.
For `Cc1cnc(Nc2cnn(C)c2)nc1N1CC(CC#N)(N2CC3(C2)CC3(F)F)C1` [E161a], the IC50 against JAK1 and against TYK2 was below 20 nM in each case.
In the case of `Cc1cnc(Nc2cnn(C)c2)nc1N1CC(CC#N)(N2CCN3CCC[C@H]3C2)C1` [E162a], the IC50 against JAK1 and against TYK2 was below 50 nM throughout.
In the case of `Cn1cc(Nc2ncc(Cl)c(N3CC(CC#N)(N4CCN5C[C@H](F)C[C@H]5C4)C3)n2)cn1` [E163a], the half-inhibitory concentration (IC50) at JAK1 and against TYK2 was below 10 nM each time.
As for `Cc1cnc(Nc2cnn(C)c2)nc1N1CC(CC#N)(N2CCn3cccc3C2)C1` [E164a], the IC50 against JAK1 and against TYK2 was below 10 nM each time.
On to `Cc1cnc(Nc2cnn(C)c2)nc1N1CC(CC(F)F)(C2CC2)C1` [E165a], for which the IC50 on JAK1 and against TYK2 was below 10 nM in each case.
As to `COC(=O)CC1(N2CCN3C[C@H](F)C[C@H]3C2)CN(c2nc(Nc3cnn(C)c3)ncc2C)C1` [E166a], the IC50 at JAK1 was below 1000 nM; on TYK2, below 200 nM.
Turning to `Cc1cnc(Nc2cnn(C)c2)nc1N1CC(CCO)(N2CCN3C[C@H](F)C[C@H]3C2)C1` [E167a], the half-inhibitory concentration (IC50) against JAK1 and at TYK2 was below 50 nM each time.
Turning to `Cc1cnc(Nc2cnn(C)c2)nc1N1CC(CCC#N)(N2CCN3C[C@H](F)C[C@H]3C2)C1` [E168a], the IC50 on JAK1 and at TYK2 was below 20 nM throughout.
Consider `Cc1cnc(Nc2cnn(C)c2)nc1N1CC(N2CCN3C[C@H](F)C[C@H]3C2)C1` [E169a], for which the IC50 is below 250 nM on JAK1 and below 120 nM at TYK2.
Taken in the same sequence, the figures for `CCC1(N2CCN3C[C@H](F)C[C@H]3C2)CN(c2nc(Nc3cnn(C)c3)ncc2C)C1` [E170a] were below 50 nM and below 100 nM.
Taken in the same sequence, the figures for `Cc1cnc(Nc2cnn(C)c2)nc1N1CC(CC#N)(N2CCN3CCCC[C@H]3C2)C1` [E171a] were below 10 nM and below 10 nM.
On to `Cc1cnc(Nc2cnn(C)c2)nc1N1CC(CC#N)(N2CC3(C2)CC(F)(F)CO3)C1` [E172a], for which the IC50 at JAK1 and against TYK2 was below 100 nM throughout.
For the molecule `Cc1cnc(Nc2cnn(C)c2)nc1N1CC(CC#N)(N2CCN3CC(C)(C)C[C@H]3C2)C1` [E173a], the IC50 on JAK1 and on TYK2 was below 10 nM in each case.
Consider `Cc1cnc(Nc2cnn(C)c2)nc1N1CC(=CC#N)C1` [E174a], for which the half-maximal inhibitory concentration (IC50) is below 100 nM on JAK1 and below 200 nM against TYK2.
On the same counts, the results for `Cc1cnc(Nc2cnn(C)c2)nc1N1CC(O)(CF)C1` [E175-A] are below 100 nM and below 120 nM.
